Each structure is given as a SMILES string.

In US8501936B2 (priority 2009, dated 2013) one finds IC50 data, which are given here for 19 molecules.

Experiment [1] has as its target human FAK (Homo sapiens (Human), UniProt Q05397). Particulars: read-out: FAK IC50.
Experiment [2] addresses human JAK2 (Homo sapiens (Human), UniProt O60674). Particulars: read-out: JAK2 IC50.

human FAK, sequence (Q05397 whole entry): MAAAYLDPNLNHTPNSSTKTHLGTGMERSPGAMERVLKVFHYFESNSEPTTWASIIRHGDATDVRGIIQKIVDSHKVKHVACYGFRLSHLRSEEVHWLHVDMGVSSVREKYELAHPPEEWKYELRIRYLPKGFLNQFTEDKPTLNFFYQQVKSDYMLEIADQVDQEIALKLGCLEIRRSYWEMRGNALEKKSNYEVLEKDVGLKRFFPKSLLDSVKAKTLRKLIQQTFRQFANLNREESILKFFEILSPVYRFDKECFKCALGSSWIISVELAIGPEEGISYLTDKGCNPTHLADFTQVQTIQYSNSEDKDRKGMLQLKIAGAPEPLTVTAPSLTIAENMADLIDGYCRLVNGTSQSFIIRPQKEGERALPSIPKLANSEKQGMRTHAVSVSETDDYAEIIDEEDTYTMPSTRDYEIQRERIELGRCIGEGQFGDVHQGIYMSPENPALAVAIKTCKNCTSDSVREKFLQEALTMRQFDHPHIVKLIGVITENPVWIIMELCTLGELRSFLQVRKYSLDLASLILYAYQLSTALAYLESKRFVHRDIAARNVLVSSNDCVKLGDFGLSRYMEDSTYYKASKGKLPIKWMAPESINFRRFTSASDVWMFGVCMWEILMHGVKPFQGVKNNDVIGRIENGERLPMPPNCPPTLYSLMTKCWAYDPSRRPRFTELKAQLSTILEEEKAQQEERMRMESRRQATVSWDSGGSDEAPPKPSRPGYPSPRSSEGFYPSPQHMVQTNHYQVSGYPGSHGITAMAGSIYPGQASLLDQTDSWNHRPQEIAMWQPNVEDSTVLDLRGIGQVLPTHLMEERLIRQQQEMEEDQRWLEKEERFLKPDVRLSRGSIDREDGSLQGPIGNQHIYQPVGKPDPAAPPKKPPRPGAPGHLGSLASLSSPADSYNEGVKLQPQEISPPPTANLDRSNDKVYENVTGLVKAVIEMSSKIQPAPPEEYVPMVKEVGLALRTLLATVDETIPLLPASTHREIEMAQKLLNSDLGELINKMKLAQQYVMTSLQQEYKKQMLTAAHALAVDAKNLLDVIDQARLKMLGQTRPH
human JAK2, sequence (O60674 815-1132): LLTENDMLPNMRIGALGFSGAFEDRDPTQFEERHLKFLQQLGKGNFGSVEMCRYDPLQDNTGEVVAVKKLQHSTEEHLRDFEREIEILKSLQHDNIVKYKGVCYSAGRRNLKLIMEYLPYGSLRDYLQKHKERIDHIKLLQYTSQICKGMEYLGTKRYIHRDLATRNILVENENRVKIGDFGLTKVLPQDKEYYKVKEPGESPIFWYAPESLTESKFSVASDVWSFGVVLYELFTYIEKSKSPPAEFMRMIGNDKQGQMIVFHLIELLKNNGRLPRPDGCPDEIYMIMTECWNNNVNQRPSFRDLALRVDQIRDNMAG

What is called IC50 is the concentration at which inhibition is half-maximal. With `CS(=O)(=O)c1ccc(-c2cccn3nc(Nc4cccc(N5CCN(CC(N)=O)CC5)c4)nc23)cc1` [Example 183, 2-(4-{3-[8-(4-Methanesulfonyl-phenyl)-[1,2,4]triazolo[1,5-a]pyridin-2-ylamino]-phenyl}-piperazin-1-yl)-acetamide], the half-inhibitory concentration (IC50) in experiment [1] is 6500 nM; in experiment [2], 0.65 nM.
The like results for `CS(=O)(=O)c1ccc(-c2cccn3nc(Nc4cccc(C5CCN(CC(N)=O)CC5)c4)nc23)cc1` [Example 184, 2-(4-{3-[8-(4-Methanesulfonyl-phenyl)-[1,2,4]triazolo[1,5-a]pyridin-2-ylamino]-phenyl}-piperidin-1-yl)-acetamide] were, in that order, 384 nM and 0.41 nM.
On the same counts, the results for `CN1CCN(c2ccc(Nc3nc4c(N(C)Cc5ccccc5N(C)S(C)(=O)=O)cccn4n3)cc2)CC1` [Example 185, N-Methyl-N-{2-[(methyl-{2-[4-(4-methyl-piperazin-1-yl)-phenylamino]-[1,2,4]triazolo[1,5-a]pyridin-8-yl}-amino)-methyl]-phenyl}-methanesulfonamide] are 62.5 nM and 51.1 nM.
The like results for `CS(=O)(=O)c1ccc(-c2cccn3nc(Nc4cccc(N5CCN(CCCF)CC5)c4)nc23)cc1` [Example 187, {3-[4-(3-Fluoro-propyl)-piperazin-1-yl]-phenyl}-[8-(4-methanesulfonyl-phenyl)-[1,2,4]triazolo[1,5-a]pyridin-2-yl]-amine] were, in that order, 2440 nM and 4.93 nM.
Regarding `CN1CCN(c2ccc(Nc3nc4c(C#Cc5ccccc5N(C)S(C)(=O)=O)cccn4n3)cc2)CC1` [Example 189, N-Methyl-N-(2-{2-[4-(4-methyl-piperazin-1-yl)-phenylamino]-[1,2,4]triazolo[1,5-a]pyridin-8-ylethynyl}-phenyl)-methanesulfonamide], the results for the concentration for half-maximal inhibition (IC50) in experiment [1] and in experiment [2] were 522 nM and 2.61 nM, respectively.
For `CN1CCN(c2cccc(Nc3nc4c(C#Cc5ccccc5N(C)S(C)(=O)=O)cccn4n3)c2)CC1` [Example 192, N-Methyl-N-(2-{2-[3-(4-methyl-piperazin-1-yl)-phenylamino]-[1,2,4]triazolo[1,5-a]pyridin-8-ylethynyl}-phenyl)-methanesulfonamide], the half-maximal inhibitory concentration (IC50) was 2420 nM in experiment [1] and 23.9 nM in experiment [2].
The like results for `CN1Cc2ccc(Nc3nc4c(C#Cc5ccccc5N(C)S(C)(=O)=O)cccn4n3)cc2C1` [Example 193, N-Methyl-N-{2-[2-(2-methyl-2,3-dihydro-1H-isoindol-5-ylamino)-[1,2,4]triazolo[1,5-a]pyridin-8-ylethynyl]-phenyl}-methanesulfonamide] were, in that order, 3000 nM and 11.5 nM.
The like results for `CN1CCN(c2ccc(Nc3nc4c(CCc5ccccc5N(C)S(C)(=O)=O)cccn4n3)cc2)CC1` [Example 194, N-Methyl-N-[2-(2-{2-[4-(4-methyl-piperazin-1-yl)-phenylamino]-[1,2,4]triazolo[1,5-a]pyridin-8-yl}-ethyl)-phenyl]-methanesulfonamide] were, in that order, 41.7 nM and 218 nM.
The like results for `CN1CCN(c2ccc(Nc3nc4c(OCc5ccccc5N(C)S(C)(=O)=O)cccn4n3)cc2)CC1` [Example 195, N-Methyl-N-(2-{2-[4-(4-methyl-piperazin-1-yl)-phenylamino]-[1,2,4]triazolo[1,5-a]pyridin-8-yloxymethyl}-phenyl)-methanesulfonamide] were, in that order, 21.8 nM and 15 nM.
With `CN1CCN(c2ccc(Nc3nc4c(/C=C/c5ccccc5N(C)S(C)(=O)=O)cccn4n3)cc2)CC1` [Example 196, N-Methyl-N-[2-((E)-2-{2-[4-(4-methyl-piperazin-1-yl)-phenylamino]-[1,2,4]triazolo[1,5-a]pyridin-8-yl}-vinyl)-phenyl]-methanesulfonamide], the IC50 in experiment [1] stood at 999 nM; in experiment [2], 32.1 nM.
The like results for `CC(Nc1cccn2nc(Nc3ccc(N4CCN(C)CC4)cc3)nc12)c1ccccc1N(C)S(C)(=O)=O` (centres unmarked) [Example 197, N-Methyl-N-[2-(1-{2-[4-(4-methyl-piperazin-1-yl)-phenylamino]-[1,2,4]triazolo[1,5-a]pyridin-8-ylamino}-ethyl)-phenyl]-methanesulfonamide] were, in that order, 999 nM and 418 nM.
On the same counts, the results for `CN1CCN(c2cccc(Nc3nc4c(-c5ccc(P(C)(C)=O)cc5)cccn4n3)c2)CC1` [Example 198, {8-[4-(Dimethyl-phosphinoyl)-phenyl]-[1,2,4]triazolo[1,5-a]pyridin-2-yl}-[3-(4-methyl-piperazin-1-yl)-phenyl]-amine] are 10000 nM and 1.73 nM.
Take `CP(C)(=O)c1ccc(-c2cccn3nc(N(CCS(C)(=O)=O)c4cccc(C5CCN(CCS(C)(=O)=O)CC5)c4)nc23)cc1` [Example 199, {8-[4-(Dimethyl-phosphinoyl)-phenyl]-[1,2,4]triazolo[1,5-a]pyridin-2-yl}-(2-methanesulfonyl-ethyl)-{3-[1-(2-methanesulfonyl-ethyl)-piperidin-4-yl]-phenyl}-amine]: the IC50 in experiment [1] is 10000 nM; in experiment [2] it was 95.8 nM.
On the same counts, the results for `CN(c1ccccc1CNc1cccn2nc(Nc3ccc4c(c3)CCC(N3CCOCC3)CC4)nc12)S(C)(=O)=O` (centres unmarked) [Example 200, N-Methyl-N-(2-{[2-(7-morpholin-4-yl-6,7,8,9-tetrahydro-5H-benzocyclohepten-2-ylamino)-[1,2,4]triazolo[1,5-a]pyridin-8-ylamino]-methyl}-phenyl)-methanesulfonamide] are 18.2 nM and 134 nM.
The like results for `CN(c1ccccc1CNc1cccn2nc(Nc3ccc4cnccc4c3)nc12)S(C)(=O)=O` [Example 201, N-(2-{[2-(Isoquinolin-6-ylamino)-[1,2,4]triazolo[1,5-a]pyridin-8-ylamino]-methyl}-phenyl)-N-methyl-methanesulfonamide] were, in that order, 167 nM and 116 nM.
On the same counts, the results for `CN(c1ccccc1CNc1cccn2nc(Nc3ccccc3)nc12)S(C)(=O)=O` [Example 202, N-Methyl-N-{2-[(2-phenylamino-[1,2,4]triazolo[1,5-a]pyridin-8-ylamino)-methyl]-phenyl}-methanesulfonamide] are 189 nM and 571 nM.
For `CP(C)(=O)c1ccc(-c2cccn3nc(Nc4cccc(C5CCN(CCS(C)(=O)=O)CC5)c4)nc23)cc1` [Example 203, {8-[4-(Dimethyl-phosphinoyl)-phenyl]-[1,2,4]triazolo[1,5-a]pyridin-2-yl}-{3-[1-(2-methanesulfonyl-ethyl)-piperidin-4-yl]-phenyl}-amine], the values for the IC50 in experiment [1] and in experiment [2] were 10000 nM and 166 nM, respectively.
`CN1CCN(c2cccc(Nc3nc4c(-c5ccc(S(C)(=O)=O)cc5)cccn4n3)c2)C(=O)C1` [Example 204, 1-{3-[8-(4-Methanesulfonyl-phenyl)-[1,2,4]triazolo[1,5-a]pyridin-2-ylamino]-phenyl}-4-methyl-piperazin-2-one]: the figures for the IC50 in experiment [1] and in experiment [2] were 10000 nM and 1.63 nM, respectively.
On to `CN1CCN(c2cccc(Nc3nc4c(-c5ccc(N6CCC(N7CCN(C)CC7)CC6)cc5)cccn4n3)c2)CC1` [Example 206, [3-(4-Methyl-piperazin-1-yl)-phenyl]-(8-{4-[4-(4-methyl-piperazin-1-yl)-piperidin-1-yl]-phenyl}-[1,2,4]triazolo[1,5-a]pyridin-2-yl)-amine], for which the figures for the IC50 in experiment [1] and in experiment [2] were 3000 nM and 45 nM, respectively.
